In brackets after ≈: the same amount, converted by molar mass. Like-named read-outs stand apart in the source and are kept apart here.
What was measured:
[1] = tested on: Bacillus subtilis (Bs); test: Minimum inhibitory concentration (MIC) in nutrient agar; assay type: cell-based, Bacillus subtilis ATCC 8473
Description: (§1) The minimum inhibitory concentration (MIC) for the compounds listed in Table I is determined for 9 bacteria, using nutrient agar: and 7 yeast and fungi, using malt yeast agar. A one percent solution of the test compound is prepared in a mixture of acetone and water. Nutrient agar is prepared at pH 6.8, representing a neutral medium, and at pH 8.2, representing an alkaline medium. The nutrient agars are prepared by adding 23 g of nutrient agar to one-liter of deionized water. In addition, the alkaline medium is prepared by adjusting a 0.04M solution of N-[tris-(hydroxymethyl)methyl]-glycine buffered deionized water with concentrated sodium hydroxide to a pH of […]. Malt yeast agar is prepared by adding 3 g yeast extract and 45 g malt agar per liter of deionized water. The specific agar is dispensed in 30 ml aliquots into 25×200 mm test tubes, capped and autoclaved for 15 minutes at 115° C. The test tubes containing the agar are cooled in a water bath until the temperature of the agar is 48° C. Then, an appropriate amount of the one percent solution of the test compound is added (except in the controls where no compound is added) to the respective test tubes so that the final concentrations are 500, 250, 100, 50, 25, 10, 5, 2.5, 1.0 and zero parts per million of the test compound in the agar, thus having a known concentration of test compound dispersed therein. The contents of the test tubes are then transferred to respective petri plates. After drying for 24 hours, the petri plates containing nutrient agar are inoculated with bacteria and those containing malt yeast agar are inoculated with yeast and fungi.
(§2) The inoculation with bacteria is accomplished by using the following procedure. Twenty-four hour-cultures of each of the bacteria are prepared by incubating the respective bacteria in tubes containing nutrient broth for 24 hours at 30° C. in a shaker. Dilutions of each of the 24 hour-cultures are made so that nine separate suspensions (one for each of the nine test bacteria) are made, each containing 10^8 colony forming units (CFU) per ml of suspension of a particular bacteria. Aliquots of 0.3 ml of each of the bacterial suspensions are used to fill the individual wells of Steer's Replicator. For each microbial suspension, 0.3 ml was used to fill three wells (i.e., three wells of 0.3 ml each) so that for the nine different bacteria, 27 wells are filled. The Steer's Replicator is then used to inoculate both the neutral and alkaline pH nutrient agar petri plates.
(§3) The inoculated petri plates are incubated at 30° C. for 48 hours and then read to determine if the test compound which is incorporated into the agar prevented growth of the respective bacteria.
(§4) Table II lists the bacteria, yeast and fungi used in the MIC test described above along with their respective American Type Culture Collection (ATCC) identification numbers.

[2] = tested on: Enterobacter aerogenes (Ea); test: as above; assay type: cell-based, Enterobacter aerogenes ATCC 13048; conditions: Klebsiella aerogenes, 48 h
Description: as §1, §2, §3, §4

[3] = tested on: Escherichia coli (Ec); test: as above; assay type: cell-based, Escherichia coli ATCC 11229; conditions: 48 h
Description: as §1, §2, §3, §4

[4] = tested on: Klebsiella pneumoniae (Kp); test: as above; assay type: cell-based, Klebsiella pneumoniae ATCC 8308
Description: as §1, §2, §3, §4

[5] = tested on: Proteus vulgaris (Pv); test: as above; assay type: cell-based, Proteus vulgaris ATCC 881; conditions: 48 h
Description: as §1, §2, §3, §4

[6] = tested on: Pseudomonas aeruginosa (PRD-10); test: as above; assay type: cell-based, Pseudomonas aeruginosa ATCC 15442; conditions: 48 h
Description: as §1, §2, §3, §4

[7] = tested on: Pseudomonas aeruginosa (Pa); test: as above; assay type: cell-based, Pseudomonas aeruginosa ATCC 10145; conditions: 48 hours
Description: as §1, §2, §3, §4

[8] = tested on: Salmonella choleraesuis (Sc); test: as above; assay type: cell-based, Salmonella choleraesuis ATCC 10708; conditions: Salmonella enterica, 48 h
Description: as §1, §2, §3, §4

[9] = tested on: Staphylococcus aureus (Sa); test: as above; assay type: cell-based, Staphylococcus aureus ATCC 6538
Description: as §1, §2, §3, §4

[10] = tested on: Candida albicans (Ca); test: Minimum inhibitory concentration (MIC) in malt yeast agar; assay type: cell-based, Candida albicans ATCC 10231; conditions: malt yeast agar; 30° C.; 48 hours for yeast; read-out: Minimum Inhibitory Concentration, Ca
Description: as §1
(§5) The inoculation with the yeast and fungi is accomplished as follows. Cultures of yeast and fungi are incubated for seven days on malt yeast agar at 30° C. These cultures are used to prepare suspensions by the following procedure. A suspension of each organism is prepared by adding 10 ml of sterile saline and 10 microliters of octylphenoxy polyethoxy ethanol to the agar slant of yeast or fungi. The sterile saline/octylphenoxy polyethoxy ethanol solution is then agitated with a sterile swab to suspend the microorganism grown on the slant. Each resulting suspension is diluted into sterile saline (1 part suspension: 9 parts sterile saline). Aliquots of these dilutions are placed in individual wells of Steer's Replicator and petri plates inoculated as previously described. The petri plates are incubated at 30° C. and read after 48 hours for yeast and 72 hours for fungi.
as §4

[11] = tested on: Penicillium chrysogenum (Pc); test: as above; assay type: cell-based, Penicillium chrysogenum ATCC 9480; conditions: malt yeast agar; 30° C.; 72 hours for fungi; read-out: Minimum Inhibitory Concentration, Pc
Description: as §1, §5, §4

[12] = tested on: Saccharomyces cerevisiae (Sc); test: as above; assay type: cell-based, Saccharomyces cerevisiae ATCC 4105; conditions: malt yeast agar, 30° C., 48 hours for yeast, read-out: Minimum Inhibitory Concentration, Sc
Description: as §1, §5, §4

[13] = tested on: Trichoderma viride (Tv); test: as above; assay type: cell-based, Trichoderma viride ATCC 8678; conditions: read-out: Minimum Inhibitory Concentration, Tv
Description: as §1, §5, §4

[14] = tested on: Aureobasidium pullulan (Ap); test: as above; assay type: cell-based, Aureobasidium pullulan ATCC 16622; conditions: read-out: Minimum Inhibitory Concentration, Ap
Description: as §1, §5, §4

[15] = tested on: Fusarium oxysporum (Fo); test: as above; assay type: cell-based, Fusarium oxysporum ATCC 48112; conditions: malt yeast agar; 30° C.; 72 hours for fungi; read-out: Minimum Inhibitory Concentration, Fo
Description: as §1, §5, §4

[16] = tested on: Aspergillus niger (An); test: as above; assay type: cell-based, Aspergillus niger ATCC 16404; conditions: malt yeast agar; 30° C.; 72 hours for fungi; read-out: Minimum Inhibitory Concentration, An
Description: as §1, §5, §4

[17] = 48 h, pH 6.8, read-out: Minimum Inhibitory Concentration, Bs
[18] = 48 h, pH 8.2, read-out: Minimum Inhibitory Concentration, Bs
[19] = pH 6.8, read-out: Minimum Inhibitory Concentration, Ea
[20] = pH 8.2, read-out: Minimum Inhibitory Concentration, Ea
[21] = pH 6.8, read-out: Minimum Inhibitory Concentration, Ec
[22] = pH 8.2, read-out: Minimum Inhibitory Concentration, Ec
[23] = 48 h, pH 8.2, read-out: Minimum Inhibitory Concentration, Kp
[24] = pH 6.8, nutrient agar, 30° C., 48 hours, read-out: Minimum Inhibitory Concentration, Kp
[25] = pH 6.8, read-out: Minimum Inhibitory Concentration, Pv
[26] = pH 8.2, read-out: Minimum Inhibitory Concentration, Pv
[27] = pH 6.8, read-out: Minimum Inhibitory Concentration, PRD
[28] = pH 8.2, read-out: Minimum Inhibitory Concentration, PRD
[29] = pH 6.8, read-out: Minimum Inhibitory Concentration, Sc
[30] = pH 8.2, read-out: Minimum Inhibitory Concentration, Sc
[31] = 48 h, pH 8.2, read-out: Minimum Inhibitory Concentration, Sa
[32] = pH 6.8, nutrient agar, 30° C., 48 hours, read-out: Minimum Inhibitory Concentration, Sa
[33] = malt yeast agar, 30° C., 72 hours for fungi

N#CC(C#N)=C1Sc2nc3ccc(C(F)(F)F)cc3nc2S1 [T, 6-trifluoromethyl-1,3-dithiolo-(4,5-b)-quinoxaline-2-ylidene-propanedinitrile]
MIC [1, 17]: > 500 µg/mL | MIC [1, 18]: > 500 µg/mL | MIC [2, 19]: > 500 µg/mL | MIC [2, 20]: > 500 µg/mL | MIC [3, 21]: > 500 µg/mL | MIC [3, 22]: > 500 µg/mL | MIC [4, 23]: > 500 µg/mL | MIC [4, 24]: > 500 µg/mL | MIC [5, 25]: > 500 µg/mL | MIC [5, 26]: > 500 µg/mL | MIC [6, 27]: > 500 µg/mL | MIC [6, 28]: > 500 µg/mL | MIC ([7]; pH 6.8, 30° C.): > 500 µg/mL | MIC ([7]; pH 8.2, 30° C.): > 500 µg/mL | MIC [8, 29]: > 500 µg/mL | MIC [8, 30]: > 500 µg/mL | MIC [9, 31]: > 500 µg/mL | MIC [9, 32]: > 500 µg/mL | MIC [10]: > 500 µg/mL | MIC [11]: 250 µg/mL (≈ 743 µM) | MIC [12]: > 500 µg/mL | MIC [13, 33]: > 500 µg/mL | MIC [14]: 250 µg/mL (≈ 743 µM) | MIC [15]: > 500 µg/mL

COc1ccc2nc3c(nc2c1)SC(C#N)=C(C#N)S3 [J, 7-methoxy-1,4-dithiino-(2,3-b)-quinoxaline-2,3-dicarbonitrile]
MIC ([1]; pH 6.8, nutrient agar, 30° C., 48 hours, read-out: Minimum Inhibitory Concentration, Bs): < 10 µg/mL | MIC ([1]; pH 8.2, nutrient agar, 30° C., 48 hours, read-out: Minimum Inhibitory Concentration, Bs): 25 µg/mL (≈ 83.8 µM) | MIC [2, 19]: > 500 µg/mL | MIC [2, 20]: > 500 µg/mL | MIC [3, 21]: > 500 µg/mL | MIC [3, 22]: > 500 µg/mL | MIC [4, 23]: > 500 µg/mL | MIC [4, 24]: > 500 µg/mL | MIC [5, 25]: > 500 µg/mL | MIC [5, 26]: > 500 µg/mL | MIC [6, 27]: > 500 µg/mL | MIC [6, 28]: > 500 µg/mL | MIC ([7]; pH 6.8, 30° C.): > 500 µg/mL | MIC ([7]; pH 8.2, 30° C.): > 500 µg/mL | MIC [8, 29]: > 500 µg/mL | MIC [8, 30]: > 500 µg/mL | MIC ([9]; 48 h, pH 6.8, read-out: Minimum Inhibitory Concentration, Sa): < 10 µg/mL | MIC ([9]; pH 8.2, nutrient agar, 30° C., 48 hours, read-out: Minimum Inhibitory Concentration, Sa): 25 µg/mL (≈ 83.8 µM) | MIC [16]: 25 µg/mL (≈ 83.8 µM) | MIC [10]: 25 µg/mL (≈ 83.8 µM) | MIC [11]: 25 µg/mL (≈ 83.8 µM) | MIC [12]: < 10 µg/mL | MIC ([13]; 72 h): 100 µg/mL (≈ 335 µM) | MIC [15]: 25 µg/mL (≈ 83.8 µM)

N#CC(C#N)=C1Sc2nc3ccc(C#N)cc3nc2S1 [S, 6-cyano-1,3-dithiolo-(4,5-b)-quinoxaline-2-ylidene-propanedinitrile]
MIC [1, 17]: > 500 µg/mL | MIC [1, 18]: > 500 µg/mL | MIC [2, 19]: > 500 µg/mL | MIC [2, 20]: > 500 µg/mL | MIC [3, 21]: > 500 µg/mL | MIC [3, 22]: > 500 µg/mL | MIC [4, 23]: > 500 µg/mL | MIC [4, 24]: > 500 µg/mL | MIC [5, 25]: > 500 µg/mL | MIC [5, 26]: > 500 µg/mL | MIC [6, 27]: > 500 µg/mL | MIC [6, 28]: > 500 µg/mL | MIC ([7]; pH 6.8, 30° C.): > 500 µg/mL | MIC ([7]; pH 8.2, 30° C.): > 500 µg/mL | MIC [8, 29]: > 500 µg/mL | MIC [8, 30]: > 500 µg/mL | MIC [9, 31]: > 500 µg/mL | MIC [9, 32]: > 500 µg/mL | MIC [16]: 100 µg/mL (≈ 341 µM) | MIC [10]: 500 µg/mL (≈ 1700 µM) | MIC [12]: 500 µg/mL (≈ 1700 µM) | MIC [13, 33]: > 500 µg/mL | MIC ([14]; malt yeast agar, 30° C., 48 hours for yeast and 72 hours for fungi): 100 µg/mL (≈ 341 µM) | MIC [15]: 500 µg/mL (≈ 1700 µM)

Reference: patent US5200409A, “Composition and use of substituted 1,3-dithiolo-and 1,4-dithiinoquinoxalines as an antimicrobial” (The Dow Chemical Company, priority 1992, dated 1993)
